Data on twelve compounds can be found in ChEMBL document CHEMBL1250441, “Antitumor agents 273. Design and synthesis of N-alkyl-thiocolchicinoids as potential antitumor agents” (Bioorg Med Chem Lett, 2010).

In brackets after ≈: the same amount, converted by molar mass. Where only a bound is given, the exact number is not on record here.

For one data set, the system named is KB. Description: Cytotoxicity against human KB cells after 2 days. It is filed as functional. To be noted: 48 h, read-out: ED50 (the source's name).
For data set [1], the system named is HCT-8. The experiment in a line: Cytotoxicity against human HCT8 cells after 2 days. The following applies: HCT-8, 48 h, read-out: ED50 (the source's name). It is filed as functional.
Data set [2] can be described thus: Cytotoxicity against human KBVIN cells expressing p-glycoprotein after 2 days. To be noted: 48 h, read-out: ED50 (the source's name). It is filed as functional.
Data set [3] concerns SK-BR-3. Description: Cytotoxicity against human SKBR3 cells after 2 days. The following applies: SK-BR-3, 48 h, read-out: ED50 (the source's name). It is filed as functional.
Data set [4] concerns A549. The experiment in a line: Cytotoxicity against human A549 cells after 2 days. It is filed as functional. To be noted: A549, 48 h, read-out: ED50 (the source's name).
Data set [5] in a line: Inhibition of tubulin assembly.
The subject of data set [6] is DU-145. The experiment in a line: Cytotoxicity against human DU145 cells after 2 days. It is filed as functional. To be noted: DU-145, 48 h, read-out: ED50 (the source's name).
A short description of data set [7]: Solubility of the compound in water. The following applies: buffer. It is filed as physicochemical.
In data set [8] the test system is A549. Description: Selectivity ratio of ED50 for human SKBR3 cells to ED50 for human A549 cells. It is filed as functional.
The subject of data set [9] is A549. The experiment in a line: Selectivity ratio of ED50 for human HCT8 cells to ED50 for human A549 cells. It is filed as functional.
In data set [10] the test system is SK-BR-3. The experiment in a line: Selectivity ratio of ED50 for human SKBR3 cells to ED50 for human KB cells. It is filed as functional.
Data set [11] deals with HCT-8. Description: Selectivity ratio of ED50 for human HCT8 cells to ED50 for human KB cells. It is filed as functional.
In data set [12] the test system is SK-BR-3. The experiment in a line: Selectivity ratio of ED50 for human SKBR3 cells to ED50 for human KBVIN cells. It is filed as functional.
Data set [13] relates to SK-BR-3. The experiment in a line: Selectivity ratio of ED50 for human SKBR3 cells to ED50 for human DU145 cells. It is filed as functional.
Data set [14] relates to DU-145. The experiment in a line: Selectivity ratio of ED50 for human HCT8 cells to ED50 for human DU145 cells. It is filed as functional.
The nature of data set [15]: Selectivity ratio of ED50 for human HCT8 cells to ED50 for human KBVIN cells. It is filed as functional.

With `CCCN([C@H]1CCc2cc(OC)c(OC)c(OC)c2-c2ccc(SC)c(=O)cc21)S(=O)(=O)c1ccccc1[N+](=O)[O-]`, the EC50 is 0.96 µg/mL (≈ 1.6 µM) in the data set with KB; more than 1 µg/mL with HCT-8 [1]; 1.36 µg/mL (≈ 2.27 µM) in data set [2]; 0.616 µg/mL (≈ 1.02 µM) in the data set on SK-BR-3 [3]; 1.63 µg/mL (≈ 2.72 µM) with A549 [4]; 0.357 µg/mL (≈ 0.595 µM) in the data set with DU-145 [6]. Besides, in [5], the IC50 (usually the point on the concentration scale where inhibition reaches its midpoint) is more than 40 µM.
For `CCN([C@H]1CCc2cc(OC)c(OC)c(OC)c2-c2ccc(SC)c(=O)cc21)S(=O)(=O)c1ccccc1[N+](=O)[O-]`, the EC50 with KB was found to be 0.13 µg/mL (≈ 0.222 µM); in the data set on HCT-8 [1] it was 0.52 µg/mL (≈ 0.886 µM); in data set [2], 0.174 µg/mL (≈ 0.296 µM); in the data set with SK-BR-3 [3] it was 0.148 µg/mL (≈ 0.253 µM); in the data set with A549 [4], 0.212 µg/mL (≈ 0.361 µM); in the data set on DU-145 [6], 0.163 µg/mL (≈ 0.278 µM). In addition, half-maximal inhibition in [5] (IC50) was put at 4.2 µM.
As for `CCN(CC)[C@H]1CCc2cc(OC)c(OC)c(OC)c2-c2ccc(SC)c(=O)cc21.O=C(O)CCC(=O)O`, the solubility – broadly, how much of the substance goes into solution per volume – in [7] was 107 mg/mL. Further, the EC50 in the data set on KB was found to be 0.063 µg/mL; with HCT-8 [1], 0.11 µg/mL; in [2], 0.151 µg/mL; with SK-BR-3 [3] it was 0.136 µg/mL; in the data set on A549 [4], 0.181 µg/mL; in the data set on DU-145 [6], 0.125 µg/mL. Further, the IC50 in data set [5] was 16 µM.
On to `CCN[C@H]1CCc2cc(OC)c(OC)c(OC)c2-c2ccc(SC)c(=O)cc21`, for which the EC50 in the data set with KB was determined as 0.02 µg/mL (≈ 0.0498 µM); in the data set with HCT-8 [1] it was 0.031 µg/mL (≈ 0.0772 µM); in data set [2], 0.0146 µg/mL (≈ 0.0364 µM); in the data set on SK-BR-3 [3], 0.0141 µg/mL (≈ 0.0351 µM); with A549 [4], 0.0193 µg/mL (≈ 0.0481 µM); in the data set with DU-145 [6], 0.0138 µg/mL (≈ 0.0344 µM). In addition, the IC50 in data set [5] was found to be 5.4 µM.
As for `CN[C@H]1CCc2cc(OC)c(OP(=O)(O)O)c(OC)c2-c2ccc(SC)c(=O)cc21`, in [7], the solubility amounted to 15 mg/mL (≈ 33100 µM). In addition, the EC50 in the data set on KB was 0.25 µg/mL (≈ 0.551 µM); in the data set on HCT-8 [1] it was more than 1 µg/mL; in [2], 1.71 µg/mL (≈ 3.76 µM); with SK-BR-3 [3], 0.137 µg/mL (≈ 0.302 µM); in the data set on A549 [4] it was 0.533 µg/mL (≈ 1.18 µM); in the data set with DU-145 [6], 0.157 µg/mL (≈ 0.347 µM). This compound gave an IC50 in [5] of more than 40 µM.
`COc1cc2c(c(OC)c1OC)-c1ccc(SC)c(=O)cc1[C@@H](NS(=O)(=O)c1ccccc1[N+](=O)[O-])CC2`: the EC50 was 0.01 µg/mL (≈ 0.0179 µM) in the data set with KB; 0.027 µg/mL (≈ 0.0483 µM) with HCT-8 [1]; 0.112 µg/mL (≈ 0.2 µM) in data set [2]; 0.0126 µg/mL (≈ 0.0226 µM) in the data set on SK-BR-3 [3]; 0.0209 µg/mL (≈ 0.0374 µM) in the data set on A549 [4]; 0.0129 µg/mL (≈ 0.0231 µM) with DU-145 [6]. The same compound gave an IC50 in [5] of 1.1 µM.
In the case of `CN[C@H]1CCc2cc(OC)c(O)c(OC)c2-c2ccc(SC)c(=O)cc21`, the EC50 with KB was 0.55 µg/mL (≈ 1.47 µM); in data set [2], 1.38 µg/mL (≈ 3.7 µM); in the data set on SK-BR-3 [3] it was 0.487 µg/mL (≈ 1.31 µM); in the data set on A549 [4] it was 1.55 µg/mL (≈ 4.14 µM); in the data set with DU-145 [6] it was 0.505 µg/mL (≈ 1.35 µM). In [5], this compound showed an IC50 of more than 40 µM.
`COc1cc2c(c(OC)c1OC)-c1ccc(SC)c(=O)cc1[C@@H](N(C)C)CC2.O=C(O)CCC(=O)O` returned a solubility in data set [7] of 103 mg/mL. The EC50 with KB worked out at 0.12 µg/mL; with HCT-8 [1], 0.022 µg/mL; in data set [2], 0.125 µg/mL; in the data set on SK-BR-3 [3], 0.0129 µg/mL; in the data set on A549 [4], 0.19 µg/mL; in the data set with DU-145 [6], 0.124 µg/mL. In addition, the “Ratio ED50” value with A549 [8], in the data set on A549 [9], in the data set on SK-BR-3 [10], in the data set on HCT-8 [11], in the data set with SK-BR-3 [12] and in the data set on SK-BR-3 [13] was 10 each time. Also, the “Ratio ED50” value (with DU-145 [14]; in data set [15]) was 10 in each case. The same compound yielded an IC50 in [5] of 3.6 µM.
Turning to `COc1cc2c(c(OC)c1OC)-c1ccc(SC)c(=O)cc1[C@@H](N(C)S(=O)(=O)c1ccccc1[N+](=O)[O-])CC2`, the EC50 with KB was found to be 0.035 µg/mL (≈ 0.0611 µM); in the data set on HCT-8 [1], 0.12 µg/mL (≈ 0.21 µM); in data set [2] it was 0.153 µg/mL (≈ 0.266 µM); in the data set with SK-BR-3 [3] it was 0.0285 µg/mL (≈ 0.0498 µM); with A549 [4] it was 0.129 µg/mL (≈ 0.225 µM); in the data set with DU-145 [6], 0.0312 µg/mL (≈ 0.0545 µM). Besides, in data set [5], the IC50 was found to be 0.92 µM.
In data set [7], `CN[C@H]1CCc2cc(OC)c(O)c(OC)c2-c2ccc(SC)c(=O)cc21.O=C(O)CCC(=O)O` displayed a solubility of 95 mg/mL. Moreover, the EC50 was 0.35 µg/mL with KB; more than 1 µg/mL with HCT-8 [1]; 1.35 µg/mL in [2]; 0.39 µg/mL in the data set on SK-BR-3 [3]; 1.26 µg/mL in the data set on A549 [4]; 0.342 µg/mL in the data set with DU-145 [6]. In addition, half-maximal inhibition in data set [5] (IC50) required 23 µM.
For `COc1cc2c(c(OC)c1OC)-c1ccc(OC)c(=O)cc1[C@@H](NC(C)=O)CC2` [COLCHICINE], the EC50 in the data set on KB came to 0.0038 µg/mL (≈ 0.00951 µM); in the data set on HCT-8 [1], 0.054 µg/mL (≈ 0.135 µM); in [2], 0.158 µg/mL (≈ 0.395 µM); in the data set on SK-BR-3 [3] it was 0.0027 µg/mL (≈ 0.00676 µM); with A549 [4] it was 0.0199 µg/mL (≈ 0.0498 µM); in the data set with DU-145 [6] it was 0.0027 µg/mL (≈ 0.00676 µM).
Regarding `COc1cc2c(c(OC)c1O)-c1ccc(SC)c(=O)cc1[C@@H](N(C)S(=O)(=O)c1ccccc1[N+](=O)[O-])CC2`, the EC50 in the data set with KB was 0.72 µg/mL (≈ 1.29 µM); with HCT-8 [1] it was more than 1 µg/mL; in [2], 1.49 µg/mL (≈ 2.67 µM); with SK-BR-3 [3] it was 1.01 µg/mL (≈ 1.81 µM); in the data set with A549 [4], 1.68 µg/mL (≈ 3.01 µM); in the data set with DU-145 [6] it was 1.15 µg/mL (≈ 2.06 µM). Besides, in data set [5], the IC50 stood at 3.6 µM.
